Measured values reported in patent publication US20010054579A1, “METHOD OF SEPARATING DIFFERENT CHEMICALS IN A SAMPLE” (priority 1997, published 2001).

How the values were obtained:
Assay type in all cases: physicochemical
[1] = Reversed-phase liquid chromatography retention factor (log k) on octyl bonded phase; settings: C8 column; for log k in 80% CH3CN, C8: aqueous 80% acetonitrile at 40° C.
Excerpt: (§1) The inertness and the chemical stability of the synthesized hexyl-phenyl bonded silica gel were studied by looking at the retention factors and peak shapes of pyridine, benzoic acid, 8-hydroxyquinoline, and naphthalene disclosed in T. Hanai, Encyclopedia of Analytical Science (1995), Academic Press, London, p. […] which is hereby incorporated herein by reference. The retention factor, in terms of measured parameters, is “k=(tR−tO)/tO”: where tR is retention time of the measured peak; and to is retention time of non-retained component.
(§2) The retention capacities of alkyl-phenyl bonded silica gels were compared from the retention factors for alkylbenzenes and polycyclic aromatic hydrocarbons (PAH).
(§3) […] The log k values were used for the analysis of hydrophobicity of bonded phases using van der Waals volumes of analytes as the standard.
(§4) The liquid chromatograph was a model HP1090 from Hewlett-Packard (Palo Alto, Calif. USA), and the chemically-bonded silica gel columns, —C18, —C8 and —C5, —C6Ph, —C3Ph, 15 cm×4.6 mm I.D., were from Phenomenex Inc. (Torrance, Calif. USA). Chemicals used were from Aldrich and ChemService. HPLC grade acetonitrile and water were from Fisher Scientific (Tustin, Calif. USA).

[2] = Reversed-phase liquid chromatography retention factor (log k) on hexyl-phenyl bonded phase; settings: C6Ph column; for log k in 80% CH3CN, C6Ph: aqueous 80% acetonitrile at 40° C.
Excerpt: as §1, §2, §3, §4

[3] = Reversed-phase liquid chromatography retention factor (log k) on propyl-phenyl bonded phase; settings: C3Ph column; for log k in 80% CH3CN, C3Ph: aqueous 80% acetonitrile at 40° C.
Excerpt: as §1, §2, §3, §4

[4] = Reversed-phase liquid chromatography retention factor (log k) on octadecyl bonded phase; settings: C18 column; for log k in 80% CH3CN, C18: aqueous 80% acetonitrile at 40° C.
Excerpt: as §1, §2, §3, §4

[5] = Reversed-phase liquid chromatography retention factor (log k) on pentyl bonded phase; settings: C5 column; for log k in 80% CH3CN, C5: aqueous 80% acetonitrile at 40° C.
Excerpt: as §1, §2, §3, §4

Compound	log k in 70% CH3CN, C8 [1]	log k in 70% CH3CN, C6Ph [2]	log k in 70% CH3CN, C3Ph [3]	log k in 70% CH3CN, C18 [4]	log k in 70% CH3CN, C5 [5]	log k in 80% CH3CN, C8 [1]	log k in 80% CH3CN, C6Ph [2]	log k in 80% CH3CN, C5 [5]	log k in 80% CH3CN, C3Ph [3]	log k in 80% CH3CN, C18 [4]
c1cc2c3c(cccc3c1)CC2 [Acenaphthene]	0.629	0.616	0.447	0.814						
C1=Cc2cccc3cccc1c23 [Acenaphthylene]	0.540	0.521	0.364	0.663	0.450					
c1ccc2cc3ccccc3cc2c1 [Anthracene]	0.688	0.679	0.490	0.894	0.562					
c1ccccc1 [Benzene]	0.281	0.230	0.167	0.340	0.209					
c1ccc2cc3c(ccc4ccccc43)cc2c1 [Benzo(a)anthracene]	0.860	0.878	0.647	1.177	0.692					
c1ccc2c(c1)cc1ccc3cccc4ccc2c1c34 [Benzo(a)pyrene]	0.071	1.009	0.733	1.375	0.755					
c1ccc2c(c1)-c1cccc3c1c-2cc1ccccc13 [Benzo(b)fluoranthene]	0.943	0.970	0.714	1.325	0.741					
c1cc2ccc3ccc4ccc5cccc6c(c1)c2c3c4c56 [Benzo(g,h,i)perylene]	1.067	1.118	0.799		0.822					
c1ccc2cc3c(cc2c1)-c1cccc2cccc-3c12 [Benzo(k)fluoranthene]	0.959	0.982	0.726	1.347	0.741					
CCCCc1ccccc1 [Butylbenzene]	0.776	0.648	0.548	0.963	0.653	0.561	0.391	0.462	0.274	0.702
c1ccc2c(c1)ccc1c3ccccc3ccc21 [Chrysene]	0.842	0.869	0.635	1.160	0.673					
CCCCCCCCCCc1ccccc1 [Decylbenzene]		1.313	1.146		1.400	1.324	0.941	1.139	0.748	1.697
c1ccc2c(c1)ccc1cc3c(ccc4ccccc43)cc12 [Dibenzo(a,h)anthracene]	1.032	1.071	0.806	1.479	0.803					
CCc1ccccc1 [Ethylbenzene]	0.513	0.428	0.348	0.628	0.417	0.324	0.215	0.258	0.121	0.394
c1ccc2c(c1)-c1cccc3cccc-2c13 [Fluoranthene]	0.747	0.746	0.535	0.989	0.599					
c1ccc2c(c1)Cc1ccccc1-2 [Fluorene]	0.629	0.602	0.436	0.794	0.527					
CCCCCCCc1ccccc1 [Heptylbenzene]	1.181	0.985	0.851	1.491	1.019	0.937	0.667	0.794	0.512	1.188
CCCCCCc1ccccc1 [Hexylbenzene]	1.043	0.871	0.747	1.310	0.894	0.806	0.572	0.679	0.430	1.021
c1ccc2c(c1)-c1ccc3ccc4cccc5cc-2c1c3c45 [Indeno(1,2,3 cd)pyrene]	1.067	1.102	0.803		0.822					
c1ccc2ccccc2c1 [Naphthalene]	0.486	0.470	0.305	0.582	0.410					
